The text below walks through data of US20240166652A1, “MODULATORS OF THE INTEGRATED STRESS PATHWAY” (Calico Life Sciences LLC, priority 2017, published 2024).

The test system of this experiment is ATF4 luciferase reporter in HEK293T cells. Kind of experiment: ATF4-Luc assay (ATF4 luciferase reporter, tunicamycin-treated HEK293T cells). The format is cell-based, human. To be noted: Homo sapiens, HEK-293T; HEK293T cells carrying the ATF4 luciferase reporter, 1 μg/mL tunicamycin, 7 hours. (In general: In a reporter assay the amount or activity of a reporter protein is the signal.)
On to `O=C(COc1ccc(Cl)c(F)c1)NC12CC(NCC(=O)c3ccc(Cl)cc3)(C1)C2` [Compound 289, 2-(4-chloro-3-fluorophenoxy)-N-(3-{[2-(4-chlorophenyl)-2-oxoethyl]amino}bicyclo[1.1.1]pentan-1-yl)acetamide], for which the concentration giving a half-maximal response (EC50) fell in the range of 50 to 250 nM.

In the case of `O=C(COc1ccc(Cl)c(F)c1)NC12CC(NCC(O)c3ccc(Cl)cc3)(C1)C2` (stereo not drawn) [Compound 290, 2-(4-chloro-3-fluorophenoxy)-N-(3-{[2-(4-chlorophenyl)-2-hydroxyethyl]amino}bicyclo[1.1.1]pentan-1-yl)acetamide], the concentration giving a half-maximal response (EC50) was 500 to 2000 nM.

As to `O=C(COc1ccc(Cl)c(F)c1)NC12CC(NCC(=O)c3ccc(Cl)c(F)c3)(C1)C2` [Compound 291, 2-(4-chloro-3-fluorophenoxy)-N-(3-{[2-(4-chloro-3-fluorophenyl)-2-oxoethyl]amino}bicyclo[1.1.1]pentan-1-yl)acetamide], the 50% effective concentration (EC50) lay within 250 to 500 nM.

Consider `O=C(COc1ccc(Cl)c(F)c1)NC12CC(NCC(O)c3ccc(Cl)c(F)c3)(C1)C2` (stereo not drawn) [Compound 292, 2-(4-chloro-3-fluorophenoxy)-N-(3-{[2-(4-chloro-3-fluorophenyl)-2-hydroxyethyl]amino}bicyclo[1.1.1]pentan-1-yl)acetamide], for which the EC50 fell in the range of 500 to 2000 nM.

As for `O=C(COc1ccc(Cl)c(F)c1)NC12CC(NC(=O)CC(=O)c3ccc(Cl)cc3)(C1)C2` [Compound 293, N-{3-[2-(4-chloro-3-fluorophenoxy)acetamido]bicyclo[1.1.1]pentan-1-yl}-3-(4-chlorophenyl)-3-oxopropanamide], the EC50 was in the range of 250 to 500 nM.

As for `O=C(/C=C/c1ccc(Cl)cc1)NC12CC(NC(=O)COc3ccc(Cl)c(F)c3)(C1)C2` [Compound 294, (2E)-N-{3-[2-(4-chloro-3-fluorophenoxy)acetamido]bicyclo[1.1.1]pentan-1-yl}-3-(4-chlorophenyl)prop-2-enamide], the EC50 lay within 10 to 50 nM.

Consider `Cc1ccc(OCC(=O)NC23CC(NC(=O)COc4ccc(Cl)c(Cl)c4)(C2)C3)cn1` [Compound 295, 2-(3,4-dichlorophenoxy)-N-(3-{2-[(6-methylpyridin-3-yl)oxy]acetamido}bicyclo[1.1.1]pentan-1-yl)acetamide], for which the EC50 lay within 50 to 250 nM.

`O=C(COc1cc(C(F)(F)F)nc(C(F)(F)F)c1)NC12CC(NC(=O)COc3ccc(Cl)c(F)c3)(C1)C2` [Compound 296, 2-{[2,6-bis(trifluoromethyl)pyridin-4-yl]oxy}-N-{3-[2-(4-chloro-3-fluorophenoxy)acetamido]bicyclo[1.1.1]pentan-1-yl}acetamide]: the EC50 is over 2000 nM.

For the molecule `COC1CC2(NC(=O)COc3ccc(Cl)c(F)c3)CCC1(NC(=O)COc1ccc(Cl)c(F)c1)CC2` (stereo not drawn) [Compound 299, N,N′-(2-methoxybicyclo[2.2.2]octane-1,4-diyl)bis[2-(4-chloro-3-fluorophenoxy)acetamide]], the EC50 is 10 to 50 nM.

`CN(C)C1CC2(NC(=O)COc3ccc(Cl)c(F)c3)CCC1(NC(=O)COc1ccc(Cl)c(F)c1)CC2` (stereo not drawn) [Compound 300, N,N′-[2-(dimethylamino)bicyclo[2.2.2]octane-1,4-diyl]bis[2-(4-chloro-3-fluorophenoxy)acetamide]]: the EC50 fell in the range of 10 to 50 nM.

`O=C(CNC(=O)OCc1ccccc1)NC12CC(NC(=O)COc3ccc(Cl)c(F)c3)(C1)C2` [Compound 304, benzyl [2-({3-[2-(4-chloro-3-fluorophenoxy)acetamido]bicyclo[1.1.1]pentan-1-yl}amino)-2-oxoethyl]carbamate]: the EC50 lay in the range of 500 to 2000 nM.

For the molecule `O=C(COc1ccc(Cl)c(F)c1)NC12CCC(NC(=O)COc3ccc4c(c3)OC(F)(F)O4)(CC1)C(O)C2` (stereo not drawn) [Compound 305, 2-(4-chloro-3-fluorophenoxy)-N-(4-{2-[(2,2-difluoro-2H-1,3-benzodioxol-5-yl)oxy]acetamido}-3-hydroxybicyclo[2.2.2]octan-1-yl)acetamide], the EC50 was under 10 nM.

`O=C(COc1ccc(Cl)c(F)c1)NC12CCC(NC(=O)COc3cncc(C(F)(F)F)c3)(CC1)C(O)C2` (stereo not drawn) [Compound 306, 2-(4-chloro-3-fluorophenoxy)-N-[3-hydroxy-4-(2-{[5-(trifluoromethyl)pyridin-3-yl]oxy}acetamido)bicyclo[2.2.2]octan-1-yl]acetamide]: the EC50 is under 10 nM.

Turning to `O=C(COc1ccc(Cl)c(F)c1)NC12CC(NC(=O)[C@@H](O)c3ccc(Cl)cc3)(C1)C2` [Compound 307, (2S)—N-{3-[2-(4-chloro-3-fluorophenoxy)acetamido]bicyclo[1.1.1]pentan-1-yl}-2-(4-chlorophenyl)-2-hydroxyacetamide], the 50% effective concentration (EC50) was over 2000 nM.

As to `O=C(COc1ccc(Cl)c(F)c1)NC12CCC(NC(=O)COc3ccnc(C(F)(F)F)c3)(CC1)C(O)C2` (stereo not drawn) [Compound 308, 2-(4-chloro-3-fluorophenoxy)-N-[3-hydroxy-4-(2-{[2-(trifluoromethyl)pyridin-4-yl]oxy}acetamido)bicyclo[2.2.2]octan-1-yl]acetamide], the EC50 was under 10 nM.

As for `O=C(COc1ccc(Cl)c(F)c1)NC12CC(NC(=O)COc3ccnn(CC(F)(F)F)c3=O)(C1)C2` [Compound 309, 2-(4-chloro-3-fluorophenoxy)-N-[3-(2-{[3-oxo-2-(2,2,2-trifluoroethyl)-2,3-dihydropyridazin-4-yl]oxy}acetamido)bicyclo[1.1.1]pentan-1-yl]acetamide], the EC50 fell in the range of 50 to 250 nM.

As to `O=C(COc1ccc(Cl)c(F)c1)NC12CC(NC(=O)COc3cnn(CC(F)(F)F)c(=O)c3)(C1)C2` [Compound 310, 2-(4-chloro-3-fluorophenoxy)-N-[3-(2-{[6-oxo-1-(2,2,2-trifluoroethyl)-1,6-dihydropyridazin-4-yl]oxy}acetamido)bicyclo[1.1.1]pentan-1-yl]acetamide], the concentration giving a half-maximal response (EC50) was 50 to 250 nM.

For the molecule `O=C(COc1ccc(Cl)c(F)c1)NC12CCC(NC(=O)COc3ccc(C4CC4)nc3)(CC1)C(O)C2` (stereo not drawn) [Compound 311, 2-(4-chloro-3-fluorophenoxy)-N-(4-{2-[(6-cyclopropylpyridin-3-yl)oxy]acetamido}-3-hydroxybicyclo[2.2.2]octan-1-yl)acetamide], the EC50 was under 10 nM.

As to `O=C(COc1ccc(Cl)c(F)c1)NC12CC(NC(=O)C(=O)Cc3ccc(Cl)cc3)(C1)C2` [Compound 312, N-{3-[2-(4-chloro-3-fluorophenoxy)acetamido]bicyclo[1.1.1]pentan-1-yl}-3-(4-chlorophenyl)-2-oxopropanamide], the EC50 fell in the range of 50 to 250 nM.

On to `O=C(COc1ccc(C(F)(F)F)nc1)NC12CCC(NC(=O)COc3ccc(Cl)c(F)c3)(CC1)C(O)C2` (stereo not drawn) [Compound 313, 2-(4-chloro-3-fluorophenoxy)-N-[2-hydroxy-4-(2-{[6-(trifluoromethyl)pyridin-3-yl]oxy}acetamido)bicyclo[2.2.2]octan-1-yl]acetamide], for which the EC50 is under 10 nM.

`COc1ccc(CNC23CCC(NC(=O)COc4ccc(Cl)c(F)c4)(CC2)C(O)C3)cc1` (stereo not drawn) [Compound 314, 2-(4-chloro-3-fluorophenoxy)-N-(2-hydroxy-4-{[(4-methoxyphenyl)methyl]amino}bicyclo[2.2.2]octan-1-yl)acetamide]: the 50% effective concentration (EC50) is over 2000 nM.

With `O=C(COc1ccc(Cl)c(F)c1)NC12CC(NC(=O)[C@H](O)c3ccc(Cl)cc3)(C1)C2` [Compound 315, (2R)—N-{3-[2-(4-chloro-3-fluorophenoxy)acetamido]bicyclo[1.1.1]pentan-1-yl}-2-(4-chlorophenyl)-2-hydroxyacetamide], the EC50 lay within 500 to 2000 nM.

In the case of `O=C(COc1ccc(Cl)c(F)c1)NC12CCC(NC(=O)COc3ccnn(CC(F)(F)F)c3=O)(CC1)C(=O)C2` [Compound 316, 2-(4-chloro-3-fluorophenoxy)-N-[3-oxo-4-(2-{[3-oxo-2-(2,2,2-trifluoroethyl)-2,3-dihydropyridazin-4-yl]oxy}acetamido)bicyclo[2.2.2]octan-1-yl]acetamide], the EC50 lay in the range of 500 to 2000 nM.

On to `O=C(COc1ccc(Cl)c(F)c1)NC12CCC(NC(=O)COc3cnn(CC(F)(F)F)c(=O)c3)(CC1)C(=O)C2` [Compound 317, 2-(4-chloro-3-fluorophenoxy)-N-[3-oxo-4-(2-{[6-oxo-1-(2,2,2-trifluoroethyl)-1,6-dihydropyridazin-4-yl]oxy}acetamido)bicyclo[2.2.2]octan-1-yl]acetamide], for which the concentration for a half-maximal effect (EC50) was over 2000 nM.

Consider `CN(C)c1ccc(CC(=O)NC23CCC(NC(=O)COc4ccc(Cl)c(F)c4)(CC2)CC3O)cc1` (stereo not drawn) [Compound 320, 2-(4-chloro-3-fluorophenoxy)-N-(4-{2-[4-(dimethylamino)phenyl]acetamido}-3-hydroxybicyclo[2.2.2]octan-1-yl)acetamide], for which the half-maximal effective concentration (EC50) was in the range of 500 to 2000 nM.

In the case of `O=C(COc1ccc(Cl)c(F)c1)NC12CCC(NC(=O)Cc3cccc(C(F)(F)F)c3)(CC1)C(O)C2` (stereo not drawn) [Compound 321, 2-(4-chloro-3-fluorophenoxy)-N-(3-hydroxy-4-{2-[3-(trifluoromethyl)phenyl]acetamido}bicyclo[2.2.2]octan-1-yl)acetamide], the EC50 lay in the range of 500 to 2000 nM.

For `O=C(COc1ccc(Cl)c(F)c1)NC12CCC(NC(=O)Cc3ccc(C(F)(F)F)cc3)(CC1)C(O)C2` (stereo not drawn) [Compound 322, 2-(4-chloro-3-fluorophenoxy)-N-(3-hydroxy-4-{2-[4-(trifluoromethyl)phenyl]acetamido}bicyclo[2.2.2]octan-1-yl)acetamide], the 50% effective concentration (EC50) was 50 to 250 nM.

Take `O=C(COc1ccc(Cl)c(F)c1)NC12CCC(NC(=O)Cc3ccc4c(c3)OCO4)(CC1)C(O)C2` (stereo not drawn) [Compound 323, 2-(2H-1,3-benzodioxol-5-yl)-N-{4-[2-(4-chloro-3-fluorophenoxy)acetamido]-2-hydroxybicyclo[2.2.2]octan-1-yl}acetamide]: the concentration for a half-maximal effect (EC50) is over 2000 nM.

As for `O=C(COc1ccc(Cl)c(F)c1)NC12CCC(NC(=O)Cc3cccnc3)(CC1)C(O)C2` (stereo not drawn) [Compound 324, 2-(4-chloro-3-fluorophenoxy)-N-{3-hydroxy-4-[2-(pyridin-3-yl)acetamido]bicyclo[2.2.2]octan-1-yl}acetamide], the EC50 was over 2000 nM.

For `CS(=O)(=O)c1ccc(CC(=O)NC23CCC(NC(=O)COc4ccc(Cl)c(F)c4)(CC2)CC3O)cc1` (stereo not drawn) [Compound 325, 2-(4-chloro-3-fluorophenoxy)-N-(3-hydroxy-4-{2-[4-(methanesulfonyl)phenyl]acetamido}bicyclo[2.2.2]octan-1-yl)acetamide], the 50% effective concentration (EC50) was over 2000 nM.

A word on the EC50: it is the concentration needed to bring the measured effect to its halfway point.
